Assay [1] addresses T1, Human phosphodiesterase-8A1 (Homo sapiens, UniProt O60658).
T1 construct: host or cells: Sf9 cells
Briefly: PDE8A1 (h) assay. In kind it is biochemical. How it is done: The test compound (compound 72), reference compound or water (control) were added to a buffer containing 40 mM Tris/HCl (pH 7.4) and 8 mM MgCl2, 63 nM cAMP and 0.035 μCi [3H]cAMP. Thereafter, the reaction was initiated by addition of the enzyme (about 0.6 U) and the mixture was incubated for 20 min at 22° C. For basal control measurements, the enzyme was omitted from the reaction mixture. Following incubation SPA beads were added. After 30 min at 22° C. under shaking, the amount of [3H]5′AMP was quantified with a scintillation counter (MicroBeta, Perkin Elmer). The results were expressed as a percent inhibition of the control enzyme activity. The standard inhibitory reference compound was BRL50481, which was tested in each experiment at several concentrations to obtain an inhibition curve from which its IC50 value was calculated. • Human phosphodiesterase-8A1 quantified by measuring the formation of 5′AMP from cAMP using a human recombinant enzyme expressed in Sf9 cells
The test compound (compound 72), reference compound or water (control) were added to a buffer containing 40 mM Tris/HCl (pH 7.4) and 8 mM MgCl2, 180 nM cAMP and 0.1 μCi [3H]cAMP. […] After 30 min at 22° C. under shaking, the amount of [3H]5′AMP was quantified with a scintillation counter (MicroBeta, Perkin Elmer). The results were expressed as a percent inhibition of the control enzyme activity. […]

The target of assay [2] is T2, Human phosphodiesterase-11A (Homo sapiens, UniProt Q9HCR9).
T2 construct: host or cells: Sf9 cells
T2 sequence (Q9HCR9 whole entry): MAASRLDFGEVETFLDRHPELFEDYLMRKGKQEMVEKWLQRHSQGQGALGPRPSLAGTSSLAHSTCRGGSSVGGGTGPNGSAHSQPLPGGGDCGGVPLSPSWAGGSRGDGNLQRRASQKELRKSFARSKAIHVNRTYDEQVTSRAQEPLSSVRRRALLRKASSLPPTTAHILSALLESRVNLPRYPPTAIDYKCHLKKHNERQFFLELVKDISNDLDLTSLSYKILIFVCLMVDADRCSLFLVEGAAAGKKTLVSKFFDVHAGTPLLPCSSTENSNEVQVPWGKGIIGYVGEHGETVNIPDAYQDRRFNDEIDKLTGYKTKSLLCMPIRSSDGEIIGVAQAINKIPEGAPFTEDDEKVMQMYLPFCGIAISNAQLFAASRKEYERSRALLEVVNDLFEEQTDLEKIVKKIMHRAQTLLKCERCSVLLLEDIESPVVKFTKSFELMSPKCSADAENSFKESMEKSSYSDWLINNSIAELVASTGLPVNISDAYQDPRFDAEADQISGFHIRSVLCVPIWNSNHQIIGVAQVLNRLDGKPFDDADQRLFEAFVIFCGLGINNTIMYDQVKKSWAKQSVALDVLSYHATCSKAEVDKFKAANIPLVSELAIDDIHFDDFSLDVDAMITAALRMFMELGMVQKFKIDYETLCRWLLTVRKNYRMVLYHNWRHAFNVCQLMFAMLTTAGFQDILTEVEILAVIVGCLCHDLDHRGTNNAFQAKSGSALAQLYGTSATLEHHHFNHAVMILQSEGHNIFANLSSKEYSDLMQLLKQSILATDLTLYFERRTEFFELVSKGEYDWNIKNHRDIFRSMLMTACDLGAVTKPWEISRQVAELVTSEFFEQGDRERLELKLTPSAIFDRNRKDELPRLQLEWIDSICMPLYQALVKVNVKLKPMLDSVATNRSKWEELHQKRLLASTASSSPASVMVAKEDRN
As to the kind of experiment: PDE11A (h) assay. In kind it is biochemical. The procedure:
The test compound (compound 72), reference compound or water (control) were added to a buffer containing 40 mM Tris/HCl (pH 7.4) and 8 mM MgCl2, 450 nM cAMP and 0.25 μCi [3H]cAMP. Thereafter, the reaction was initiated by addition of the enzyme (about 4 ng) and the mixture was incubated for 15 min at 22° C. For basal control measurements, the enzyme was omitted from the reaction mixture. Following incubation SPA beads were added. After 30 min at 22° C. under shaking, the amount of [3H]5′AMP was quantified with a scintillation counter (Topcount, Packard). The results were expressed as a percent inhibition of the control enzyme activity. The standard inhibitory reference compound was milrinone, which was tested in each experiment at several concentrations to obtain an inhibition curve from which its IC50 value was calculated. • Human phosphodiesterase-11A quantified by measuring the formation of 5′AMP from cAMP using a human recombinant enzyme expressed in Sf9 cells.
The test compound (compound 72), reference compound or water (control) were added to a buffer containing 40 mM Tris/HCl (pH 7.4) and 8 mM MgCl2, 450 nM cAMP and 0.25 μCi [3H]cAMP. […] After 30 min at 22° C. under shaking, the amount of [3H]5′AMP was quantified with a scintillation counter (MicroBeta, Perkin Elmer). The results were expressed as a percent inhibition of the control enzyme activity.

T1 sequence (O60658 whole entry): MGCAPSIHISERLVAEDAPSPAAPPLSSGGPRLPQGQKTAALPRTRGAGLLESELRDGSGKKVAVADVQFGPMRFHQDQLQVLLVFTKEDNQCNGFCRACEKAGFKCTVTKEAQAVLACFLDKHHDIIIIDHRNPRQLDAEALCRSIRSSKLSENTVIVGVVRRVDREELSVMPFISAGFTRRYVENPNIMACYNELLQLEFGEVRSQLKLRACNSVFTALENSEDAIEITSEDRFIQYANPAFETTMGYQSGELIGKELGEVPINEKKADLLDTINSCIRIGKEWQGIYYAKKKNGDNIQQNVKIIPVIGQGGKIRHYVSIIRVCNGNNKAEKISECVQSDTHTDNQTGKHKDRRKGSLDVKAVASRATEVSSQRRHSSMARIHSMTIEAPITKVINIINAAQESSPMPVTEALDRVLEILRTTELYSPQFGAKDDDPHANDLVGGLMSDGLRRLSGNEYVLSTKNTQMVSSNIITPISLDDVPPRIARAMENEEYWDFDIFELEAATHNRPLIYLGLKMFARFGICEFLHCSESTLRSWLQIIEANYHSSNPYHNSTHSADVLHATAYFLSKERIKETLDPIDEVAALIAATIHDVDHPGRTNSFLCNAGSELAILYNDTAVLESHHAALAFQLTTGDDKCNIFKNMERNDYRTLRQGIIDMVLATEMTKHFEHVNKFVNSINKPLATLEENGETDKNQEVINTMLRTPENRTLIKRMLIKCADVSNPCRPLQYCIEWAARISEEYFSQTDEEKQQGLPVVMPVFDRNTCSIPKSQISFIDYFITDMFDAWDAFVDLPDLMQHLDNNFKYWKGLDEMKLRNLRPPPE

Broadly, the IC50 is the concentration that gives 50% inhibition. A higher IC50 goes with lower potency. As for `COCCN(CCOC)c1nc(N2CCN(C)C(=O)C2)c2nc(N(CCOC)CCOC)nc(N3CCC(OC)CC3)c2n1` [Compound 72, 4-(2,6-bis(bis(2-methoxyethyl)amino)-8-(4-methoxypiperidin-1-yl)pyrimido[5,4-d]pyrimidin-4-yl)-1-methylpiperazin-2-one], the IC50 in assay [1] is above 10 µM. Besides, in assay [2], the IC50 was above 10 µM and the “potency for PDE11A as compared to dipyridamole” value is “reduced as compared to dipyridamole”.

The record behind these values is patent US20230146675A1, “PYRIMIDO[5,4-d]PYRIMIDINE DERIVATIVES AS ENT INHIBITORS FOR THE TREATMENT OF CANCERS, AND COMBINATION THEREOF WITH ADENOSINE RECEPTOR ANTAGONISTS” (ITEOS BELGIUM SA, priority 2020, published 2023).
